Columns and labels:
[1] = system: E. coli ATCC 25922; test: microbe, parasite or virus in culture; settings: n = 2
Protocol: A positive control of a row of just the bacteria and a negative control of only the medium were included for every plate tested.
The compounds along with standard antibiotics were serially diluted 2-fold across the 96-well plates. […] A sample of each culture was then diluted 40-fold in fresh MH broth (in presence and absence of Tween) and incubated at 37°C for 2 to 3 h.
For experiments in the presence of surfactant, 2% beractant (25 mg/ml) was added to the mid-log-phase cultures and mixed gently and added to all the 96-well plates. For experiments in the presence of serum, a mixture of 50% of human serum along with 50% MHB was prepared and used throughout the experiment.

[2] = system: A. baumannii ATCC 19606; test: microbe, parasite or virus in culture; settings: Acinetobacter baumannii, n = 2
In short: (§1)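 Broth microdilution: 2-fold serial dilutions of test compounds plus reference antibiotics; inoculum = culture diluted 40x in MH broth ±Tween, 37°C, 2–3 h. Controls per plate: bacteria alone (positive), medium alone (negative).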

[3] = system: K. pneumoniae ATCC 13883; test: microbe, parasite or virus in culture; settings: Klebsiella pneumoniae, n = 2
In short: as §1

[4] = system: P. aeruginosa ATCC 10145; test: microbe, parasite or virus in culture; settings: Pseudomonas aeruginosa, n = 2
In short: as §1

[5] = system: E. coli; settings: literature value; cited from earlier work

COc1cc(Cc2cnc(N)nc2N)cc(OC)c1OC [Trimethoprim, trimethoprim]
1 µg/mL: MIC ([1]; Escherichia coli, ATCC25922, 24 h, Corning NBS, MH + 2% LHB, 2% LS) | MIC ([1]; Escherichia coli, ATCC25922, 24 h, Corning NBS, MH + 2% LHB, no additive) | MIC ([1]; Escherichia coli, ATCC25922, 24 h, Corning TC, MH + 2% LHB, no additive) | MIC ([1]; Escherichia coli, ATCC25922, 24 h, Trek PS, MH + 2% LHB, 50% HS) | MIC ([1]; Escherichia coli, ATCC25922, 24 h, Trek PS, MH + 2% LHB, no additive) | MIC ([1]; Escherichia coli, ATCC25922, Corning NBS plate, MHB +0.002% T80, no further additive) | MIC ([1]; Escherichia coli, ATCC25922, Corning PS, MH, 2% LS) | MIC ([1]; Escherichia coli, ATCC25922, Trek PS, MH, 50% HS)
1 to 4 µg/mL: MIC ([1]; Escherichia coli, ATCC25922, Trek PS, MH, 2% LS)
64 µg/mL: MIC ([2]; ATCC19606, Corning NBS, MHB +T80)
16 to 32 µg/mL: MIC ([2]; ATCC19606, Corning NBS, MHB -T80) | MIC ([2]; ATCC19606, Corning TC, MHB -T80)
1 to 2 µg/mL: MIC ([1]; Corning PS plate, MHB +0.002% T80, no further additive) | MIC ([1]; Escherichia coli, ATCC25922, 24 h, Corning NBS, MH + 2% LHB, 50% HS) | MIC ([1]; Escherichia coli, ATCC25922, 24 h, Corning PS, MH + 2% LHB, 2% LS) | MIC ([1]; Escherichia coli, ATCC25922, 24 h, Corning PS, MH + 2% LHB, no additive) | MIC ([1]; Escherichia coli, ATCC25922, 24 h, Corning PS, MH + T80, 2% LS) | MIC ([1]; Escherichia coli, ATCC25922, 24 h, Corning PS, MH + T80, 50% HS) | MIC ([1]; Escherichia coli, ATCC25922, 24 h, Corning TC, MH + 2% LHB, 2% LS) | MIC ([1]; Escherichia coli, ATCC25922, 24 h, Corning TC, MH + 2% LHB, 50% HS) | MIC ([1]; Escherichia coli, ATCC25922, 24 h, Corning TC, MH + T80, 2% LS) | MIC ([1]; Escherichia coli, ATCC25922, 24 h, Corning TC, MH + T80, 50% HS) | MIC ([1]; Escherichia coli, ATCC25922, Corning NBS, MH, 2% LS) | MIC ([1]; Escherichia coli, ATCC25922, Corning NBS, MH, 50% HS) | MIC ([1]; Escherichia coli, ATCC25922, Corning PS plate, MHB +0.002% T80, no further additive) | MIC ([1]; Escherichia coli, ATCC25922, Corning PS, MH, 50% HS) | MIC ([1]; Escherichia coli, ATCC25922, Corning TC, MH, 2% LS) | MIC ([3]; ATCC13883, Corning NBS, MHB +T80)
2 µg/mL: MIC ([1]; Escherichia coli, ATCC25922, 24 h, Corning NBS, MH + T80, 2% LS) | MIC ([1]; Escherichia coli, ATCC25922, 24 h, Corning NBS, MH + T80, 50% HS) | MIC ([1]; Escherichia coli, ATCC25922, 24 h, Trek PS, MH + T80, 2% LS) | MIC ([1]; Escherichia coli, ATCC25922, Trek PS plate, MHB +0.002% T80, no further additive)
2 to 4 µg/mL: MIC ([1]; Escherichia coli, ATCC25922, 24 h, Trek PS, MH + T80, 50% HS) | MIC ([3]; ATCC13883, Corning PS, MHB +T80)
32 to 64 µg/mL: MIC ([2]; ATCC19606, Corning TC, MHB +T80)
0.25 µg/mL: MIC ([1]; Escherichia coli, ATCC25922, Nunc PS plate, MHB −T80)
1 to 8 µg/mL: MIC ([1]; Escherichia coli, ATCC25922, 24 h, Corning PS, MH + 2% LHB, 50% HS) | MIC ([3]; ATCC13883, Corning PS, MHB -T80)
4 to 16 µg/mL: MIC ([3]; ATCC13883, Corning TC, MHB +T80) | MIC ([3]; ATCC13883, Corning TC, MHB -T80)
4 to 8 µg/mL: MIC ([3]; ATCC13883, Corning NBS, MHB -T80)
0.06–0.25 ([72]) µg/ml: MIC (literature) [5]
0.25 to 0.5 µg/mL: MIC ([1]; Corning NBS plate, MHB −T80, no additive) | MIC ([1]; Corning PS plate, MHB −T80, no additive) | MIC ([1]; Corning TC plate, MHB −T80, no additive) | MIC ([1]; Escherichia coli, ATCC25922, Corning NBS plate, MHB −T80, no additive) | MIC ([1]; Escherichia coli, ATCC25922, Corning PS plate, MHB −T80, no additive) | MIC ([1]; Escherichia coli, ATCC25922, Corning TC plate, MHB −T80, no additive) | MIC ([1]; Escherichia coli, ATCC25922, Nunc PS plate, MHB +0.002% T80) | MIC ([1]; Escherichia coli, ATCC25922, Nunc U TC plate, MHB +0.002% T80) | MIC ([1]; Escherichia coli, ATCC25922, Nunc U TC plate, MHB −T80) | MIC ([1]; Escherichia coli, ATCC25922, Nunc flat TC plate, MHB +0.002% T80) | MIC ([1]; Escherichia coli, ATCC25922, Nunc flat TC plate, MHB −T80)
0.5 to 1 µg/mL: MIC ([1]; Corning TC plate, MHB +0.002% T80, no further additive) | MIC ([1]; Escherichia coli, ATCC25922, 24 h, Trek PS, MH + 2% LHB, 2% LS) | MIC ([1]; Escherichia coli, ATCC25922, Corning TC plate, MHB +0.002% T80, no further additive) | MIC ([1]; Escherichia coli, ATCC25922, Corning TC, MH, 50% HS) | MIC ([1]; Escherichia coli, ATCC25922, Trek PS plate, MHB −T80, no additive) | MIC ([1]; Trek PS plate, MHB −T80, no additive)
> 64 µg/mL: MIC ([2]; ATCC19606, Corning PS, MHB +T80) | MIC ([2]; ATCC19606, Corning PS, MHB -T80) | MIC ([4]; ATCC10145, Corning NBS, MHB +T80) | MIC ([4]; ATCC10145, Corning NBS, MHB -T80) | MIC ([4]; ATCC10145, Corning PS, MHB +T80) | MIC ([4]; ATCC10145, Corning PS, MHB -T80) | MIC ([4]; ATCC10145, Corning TC, MHB +T80) | MIC ([4]; ATCC10145, Corning TC, MHB -T80)
